Measured values from PubChem BioAssay AID248 (DTP/NCI, 2004).
Inconclusive results and toxic doses are left out. No stated cut-off is given here; in the data, active means T/C of 150% or more; inactive means T/C below 125%.

Test system: L1210 leukemia ip in BDF1 mice, survival T/C
Assay: NCI In Vivo Anticancer Drug Screen. Data for tumor model L1210 Leukemia (intraperitoneal) in B6D2F1 (BDF1) mice
Conditions: endpoint: mean survival time, higher = longer survival
How it was run: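 Value reflects the ratio of survival in compound-treated mice to survival in vehicle-treated controls, with both groups carrying the same transplanted tumor.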

[1] = dose: 100.0 mg/kg/injection, schedule: Q04DX002 (ip), vehicle: gum acacia
[2] = dose: 200.0 mg/kg/injection, schedule: Q04DX002 (ip), vehicle: gum acacia
[3] = dose: 400.0 mg/kg/injection, schedule: Q04DX002 (ip), vehicle: gum acacia
[4] = dose: 100.0 mg/kg/injection, schedule: Q01DX009 (ip), vehicle: Klucel (hydroxypropylcellulose) (HPC)
[5] = dose: 200.0 mg/kg/injection, schedule: Q01DX009 (ip), vehicle: Klucel (hydroxypropylcellulose) (HPC)
[6] = dose: 400.0 mg/kg/injection, schedule: Q01DX009 (ip), vehicle: Klucel (hydroxypropylcellulose) (HPC)
[7] = dose: 100.0 mg/kg/injection, schedule: Q04DX003 (ip), vehicle: Klucel (hydroxypropylcellulose) (HPC)
[8] = dose: 200.0 mg/kg/injection, schedule: Q04DX003 (ip), vehicle: Klucel (hydroxypropylcellulose) (HPC)
[9] = dose: 100.0 mg/kg/injection, schedule: Q04DX002 (ip), vehicle: saline with Tween-80
[10] = dose: 200.0 mg/kg/injection, schedule: Q04DX002 (ip), vehicle: saline with Tween-80
[11] = dose: 400.0 mg/kg/injection, schedule: Q04DX002 (ip), vehicle: saline with Tween-80

Measured: T/C

O=[N+]([O-])C12CCC(c3ccccc31)c1ccccc12
inactive: [1] 103 % of control | [2] 101 % of control | [3] 92 % of control

COC(=O)c1ccccc1N=NN(C)CC(C)C
inactive: dose: 50.0 mg/kg/injection, schedule: Q01DX009 (ip), vehicle: saline with Tween-80 110 % of control | dose: 50.0 mg/kg/injection, schedule: Q04DX003 (ip), vehicle: saline with Tween-80 103 % of control | dose: 100.0 mg/kg/injection, schedule: Q01DX009 (ip), vehicle: saline with Tween-80 121 % of control | dose: 100.0 mg/kg/injection, schedule: Q04DX003 (ip), vehicle: saline with Tween-80 114 % of control

N#Cc1nc2c(n(O)c1=N)CCC/C2=C\c1ccc(Cl)c(Cl)c1
inactive: dose: 100.0 mg/kg/injection, schedule: Q04DX002 (ip), vehicle: Klucel (hydroxypropylcellulose) (HPC) 99 % of control | dose: 200.0 mg/kg/injection, schedule: Q04DX002 (ip), vehicle: Klucel (hydroxypropylcellulose) (HPC) 89 % of control | dose: 400.0 mg/kg/injection, schedule: Q04DX002 (ip), vehicle: Klucel (hydroxypropylcellulose) (HPC) 92 % of control

O=C(COc1ccc(Cl)cc1Cl)Nc1cc(Cl)ccc1Cl
inactive: [1] 95 % of control | [2] 95 % of control | [3] 100 % of control

COC(=O)C1OC1c1ccc(OC)c(OC)c1 (stereo not drawn)
inactive: dose: 100.0 mg/kg/injection, schedule: Q01DX001 (ip), vehicle: carboxymethylcellulose (CMC) 95 % of control | dose: 200.0 mg/kg/injection, schedule: Q01DX001 (ip), vehicle: carboxymethylcellulose (CMC) 97 % of control | dose: 400.0 mg/kg/injection, schedule: Q01DX001 (ip), vehicle: carboxymethylcellulose (CMC) 101 % of control

O=C(N/N=C/c1c[nH]c2ccccc12)C1CCCO1 (stereo not drawn)
inactive: [4] 98 % of control | [5] 98 % of control | [6] 94 % of control

COC(=O)c1cn(/C=C/c2ccccc2)cn1
inactive: dose: 87.5 mg/kg/injection, schedule: Q04DX003 (ip), vehicle: Klucel (hydroxypropylcellulose) (HPC) 94 % of control | dose: 175.0 mg/kg/injection, schedule: Q04DX003 (ip), vehicle: Klucel (hydroxypropylcellulose) (HPC) 89 % of control | dose: 350.0 mg/kg/injection, schedule: Q04DX003 (ip), vehicle: Klucel (hydroxypropylcellulose) (HPC) 97 % of control

CC(=O)C(=Cc1c[nH]c2ccccc12)C(C)=O
inactive: dose: 50.0 mg/kg/injection, schedule: Q01DX009 (ip), vehicle: water 98 % of control | dose: 100.0 mg/kg/injection, schedule: Q01DX009 (ip), vehicle: water 112 % of control | dose: 100.0 mg/kg/injection, schedule: Q04DX003 (ip), vehicle: water 106 % of control | dose: 200.0 mg/kg/injection, schedule: Q01DX009 (ip), vehicle: water 98 % of control | dose: 200.0 mg/kg/injection, schedule: Q04DX003 (ip), vehicle: water 103 % of control | dose: 400.0 mg/kg/injection, schedule: Q01DX009 (ip), vehicle: water 95 % of control | dose: 400.0 mg/kg/injection, schedule: Q04DX003 (ip), vehicle: water 104 % of control

CC(=O)OCC1OC(N2C(=O)/C(=C/c3ccncc3)SC2=S)C(OC(C)=O)C(OC(C)=O)C1OC(C)=O (stereo not drawn)
inactive: dose: 25.0 mg/kg/injection, schedule: Q01DX005 (ip), vehicle: other 97 % of control | dose: 50.0 mg/kg/injection, schedule: Q01DX005 (ip), vehicle: other 94 % of control | dose: 100.0 mg/kg/injection, schedule: Q01DX005 (ip), vehicle: other 97 % of control | dose: 400.0 mg/kg/injection, schedule: Q01DX005 (ip), vehicle: other 86 % of control

c1ccc2c(c1)CCc1ccccc1CNC2
inactive: dose: 25.0 mg/kg/injection, schedule: Q04DX002 (ip), vehicle: Klucel (hydroxypropylcellulose) (HPC) 111 % of control | dose: 50.0 mg/kg/injection, schedule: Q04DX002 (ip), vehicle: Klucel (hydroxypropylcellulose) (HPC) 106 % of control

Cc1cc(-c2ccc(N3C(=O)C=CC3=O)c(C)c2)ccc1N1C(=O)C=CC1=O
inactive: [7] 105 % of control | [8] 100 % of control

CCCCCCCCCCCCC[As](=O)(O)CCCCCCCCCCCCC
inactive: dose: 50.0 mg/kg/injection, schedule: Q01DX001 (ip), vehicle: saline 95 % of control | dose: 100.0 mg/kg/injection, schedule: Q01DX001 (ip), vehicle: saline 103 % of control | dose: 200.0 mg/kg/injection, schedule: Q01DX001 (ip), vehicle: saline 101 % of control | dose: 400.0 mg/kg/injection, schedule: Q01DX001 (ip), vehicle: saline 91 % of control

Cc1ccc(C(=O)C(c2ccccc2)C(Cl)c2ccccc2)cc1 (stereo not drawn)
inactive: [4] 98 % of control | [7] 92 % of control | [5] 104 % of control | [8] 98 % of control | [6] 92 % of control | dose: 400.0 mg/kg/injection, schedule: Q04DX003 (ip), vehicle: Klucel (hydroxypropylcellulose) (HPC) 102 % of control

CCOC(=O)c1cc2ccccc2[nH]1
inactive: dose: 50.0 mg/kg/injection, schedule: Q01DX001 (ip), vehicle: Klucel (hydroxypropylcellulose) (HPC) 93 % of control | dose: 100.0 mg/kg/injection, schedule: Q01DX001 (ip), vehicle: Klucel (hydroxypropylcellulose) (HPC) 98 % of control | [9] 97 % of control | dose: 200.0 mg/kg/injection, schedule: Q01DX001 (ip), vehicle: Klucel (hydroxypropylcellulose) (HPC) 93 % of control | [10] 87 % of control | [11] 97 % of control

Cc1cccc(N=Cc2ccc(Cl)cc2Cl)c1C
inactive: dose: 100.0 mg/kg/injection, schedule: Q01DX009 (ip), vehicle: alcohol 95 % of control | [9] 106 % of control | dose: 200.0 mg/kg/injection, schedule: Q01DX009 (ip), vehicle: alcohol 87 % of control | [10] 102 % of control | [11] 98 % of control
